Columns and labels:
Experiment in all cases: NADPH/GSH reductase-coupled HED assay, A340
Format in all cases: biochemical
Conditions in all cases: read-out: Km (HED); 0.5 mM GSH, 0.2 mM NADPH, yeast GSH reductase, 50 mM sodium phosphate pH 7.5, 50 mM NaCl, 25 °C
[1] = target: eGrx1 (E. coli Grx1) (Escherichia coli, UniProt P68688)
[2] = target: cGrx1 (Clostridium selenoprotein Grx1) (Alkaliphilus oremlandii, UniProt A8MIN3, U13C)
[3] = target: cGrx2 (Clostridium Cys-containing Grx2) (Alkaliphilus oremlandii, UniProt A8MJH2)
[4] = target: cGrx2 (Clostridium Cys-containing Grx2) (Alkaliphilus oremlandii, UniProt A8MJH2, C15S)

eGrx1 (E. coli Grx1), sequence (P68688 whole entry): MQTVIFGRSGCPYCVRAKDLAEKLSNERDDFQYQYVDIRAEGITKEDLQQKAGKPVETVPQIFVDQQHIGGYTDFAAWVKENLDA

SMILES: OCCSSCCO [hydroxyethyl disulfide]
- Km [1]: 11.2 ± 2.2 mM
- Km [2]: 1.5 ± 0.8 mM
- Km [3]: 17.6 ± 5.6 mM
- Km [4]: 18.1 ± 4.5 mM
